Measured values published in patent US6599936B1, “Anti-sebum skin care cosmetic compositions containing branched esters” (Unilever Home & Personal Care USA division of Conopco, Inc., priority 1999, dated 2003).
Where two headings read alike, the source gives them in different places.

Assays:
Format in all cases: cell-based
human sebocytes = assay: Sebocyte assay: 14C-acetate label remaining in sebocytes (sebum suppression in vitro); conditions: for inhibition at 0.001 %: 0.001% test agent; for inhibition at 0.01 %: 0.01% test agent; for sebum suppression, result in words: conclusion drawn from Tables 1-5
Method: Secondary cultures of human sebocytes obtained from an adult […] were grown in 48-well or 96-well tissue culture plates (Costar Corp.; Cambridge, Mass.) until three days post-confluence. Sebocyte growth medium consisted of Clonetics Keratinocyte Basal Medium (KBM) supplemented With 14 μg/ml bovine pituitary extract, 0.4 μ/ml hydrocortisone, 5 μ/ml insulin, 10ng/ml epidermal growth factor, 1.2×10^−10 M cholera toxin, 100 units/ml penicillin, and 100 μg/ml streptomycin. All cultures were incubated at 37° C. in the presence of 7.5% CO2. Medium was changed three times per week.
On the day of experimentation, the growth medium was removed and the sebocytes washed three times with sterile Dulbecco's Modified Eagle Medium (DMEM; phenol red free). Fresh DMEM was added to each sample (triplicates) with 1-5 microliter of test agent solubilized in ethanol. Controls consisted of addition of ethanol alone. Each plate was returned to the incubator for 20 hours followed by the addition of ^14C-acetate buffer (5 mM final concentration, 56 mCi/mmol specific activity). Sebocytes were returned to the incubator for four hours afterwhich each culture was rinsed three times with phosphate buffered saline to remove unbound label. Radioactive label remaining in the sebocytes was harvested and counted using a Beckman scintillation counter. Statistical significance (p value) was calculated using student's t-test. Phenol Red, a known sebum suppressive agent, was employed as a positive control.

[1] = system: Neonatal human dermal fibroblasts; assay: Procollagen I production by fibroblasts, slot blot
Method: Neonatal human dermal fibroblasts were purchased from Clonetics Corp., San Diego, Calif. All materials for cell culture were purchased from Life Technologies, NY and used in passages 5-10. Cells were seeded at a density of approximately 7,500/well in the inner 48 wells of a 96-well plate in a medium containing DMEM (Dulbecco's Modified Eagle's Medium), high-glucose supplemented with 2 mM L-glutamine, 10% fetal bovine serum, and antibiotic and antimycotic solutions). Cells were then grown to confluence for 2 days. At confluence, the medium was removed and cells were washed with serum-free DMEM, and each well dosed with 200 μl of a solution of a test compound in serum-free DMEM. Each dosing was replicated in the total of six wells. […] After 24 hours, the test compound solution or the control solution was removed and cells redosed with 100 μl of a solution of a test compound in serum-free DMEM. After 24 hours, the test compound solution or the control solution was removed and stored over the weekend at 4° C. with protease inhibitor (Aprotinin from Sigma) in a ratio of aprotinin to water of 1:200. The test compound solution was then diluted in DMEM (approximately 20 μl sample in 200 μl DMEM).
Nitrocellulose membrane and 3 sheets of filter paper were soaked in TRIS buffered saline (TBS, pH 7.3.). BioRad slot blot apparatus (BioRad Labs, CA) was set up with filter paper on bottom, membrane on top, tightened. […] TBS was added per well. Vacuum was used to suck wells through membrane. The diluted test compound solution or control was vortexed, then 100 μl was loaded per well and gravity dried. Procollagen from the test solution was bound to the membrane at this point in the procedure. Membrane was removed from the apparatus, excess cut off, and bottom right corner notched for orientation. The membrane was placed in blocking solution (5% milk powder in Dulbecco's phosphate buffered saline) overnight at 4° C., with shaking. The membrane was then incubated for 1.5 hrs at room temperature with 1.5 mL Rat Anti-Human Procollagen Amino-Terminal Ab (Chemicon MAB1912) in TBS with 0.1% BSA (ratio of antibody to buffer/BSA was 1:100) in a sealed bag with shaking. The membrane was then removed; washed 3 times for 5 minutes in TBS/0.1% Tween. The membrane was then incubated for 1 hour at room temperature in 2 mL of Biotinylated Anti-Rat Peroxidase-Conjugated Ab (Vector Labs) in TBS with 0.1% BSA (ratio of antibody to buffer/BSA was 1:1000) in a sealed bag with shaking.
The membrane was washed 3 times for 5 minutes in TBS/0.1%Tween. 3 mL PBS was incubated with 30 μl each of solutions A and B from Vectastain Kit for 30 minutes. The membrane was placed in the resulting solution for 30 minutes in a sealed bag with shaking. The membrane was then removed and washed twice for 5 minutes in TBS/0.1% Tween. The membrane was then stained using the following solution:
12.5 mg 3-amino 9-ethyl carbazole (Sigma)
3.125 (approximately) mL DMF (N,N-dimethylformamide, from Sigma)
The membrane was stained until color developed and the reaction stopped with 2 washes for 10 minutes in tap water. A transparency of the blot was prepared using a color copier. Blot was scanned on Bio-Rad GS-700 Image Analysis densitometer and volume (OD*mm^2) of color/slot determined using molecular analysis software. Fold increase was calculated as a ratio of densitometer reading for cells treated with a test compound over control.

[2] = system: Neonatal human dermal fibroblasts; assay: Glycosaminoglycan synthesis by fibroblasts, Alcian Blue dot blot; conditions: Table 7, glycosaminoglycans
Method: Neonatal human dermal fibroblasts were seeded at a density of approximately 50,000/well in a 12-well plate in a medium containing DMEM (high glucose supplemented with 2 mM L-glutamine, 10% fetal bovine serum, antibiotic and antimycotic solutions). Cells were then grown to confluence for 2 days. At confluence, each well was rinsed in serum-free DMEM and the cells dosed with test compounds (in triplicate) in 750 μL of serum-free DMEM. After 24 hours, this medium was aspirated and the treatment step repeated. After a second 24-hour period, this medium, containing the soluble GAGs, was collected and frozen until analysis.
A positively-charged Zeta Probe membrane was soaked in sterile water and placed into the Dot-Blot Apparatus (both Bio-Rad Labs, Hercules, Calif.). 100 μL of water was applied to each well and pulled through using a vacuum. After thawing, 100 μL of test solution samples or standards (Hyaluronic acid or Chondroitin Sulfate from bovine trachea, Sigma, St. Louis, Mo.) was applied to the membrane and allowed to gravity filter (about 1.5-2 hours). GAGs were now bound to membrane. The membrane was blocked in 3% w/v fatty acid free bovine serum albumin (Sigma) in water for one hour. A dye solution of 0.5% w/v Alcian Blue dye (ICN Biochemicals, Cleveland, Ohio.) in 3% acetic acid, pH approximately 2.3, was made. The membrane was washed twice in distilled water and then stained in the dye solution on a rotary shaker for 15 minutes. The dye was poured off and the membrane destained twice for 15 minutes each time in 3% acetic acid. The membrane was rinsed in water and left to dry overnight. The blot was scanned on Bio-Rad GS-700 Image Analysis Densitometer and volume (OD*mm^2) of color/slot determined using molecular analyst software. Fold increase over control was calculated as a ratio of densitometer reading for cells treated with a test compound over control.

[3] = Homo sapiens, 20 h, Table 3A, 20 hour incubation, 96 well plate, read-out: % Reduction
[4] = Table 6B, 0.0046% test compound
[5] = Homo sapiens, 0.5 h, Table 4, 30 minute incubation, 48 well plate, read-out: % Reduction
[6] = Table 6B, positive control, concentration not given
[7] = positive control, concentration not given

`CCCCCCCCCCCCCC(=O)OC(C)C` [Isopropyl Myristate, Isopropyl myristate] was tested, and the inhibition at 0.001 % (human sebocytes; [3]) was -6.3%, the inhibition at 0.01 % (human sebocytes; [3]) was 4% and the “sebum suppression, result in words” value (human sebocytes) was “not an effective sebum suppressor”.

Compound `CC(C)CCCCCCCCCCOC(=O)c1ccccc1` [Isotridecyl Benzoate] has an inhibition at 3.9e-05 % (human sebocytes; Homo sapiens, 20 h, Table 5, 0.000039% test agent, 20 hour incubation, 48 well plate, read-out: % Reduction) of 36.3%, an inhibition at 0.00039 % (human sebocytes; Homo sapiens, 20 h, Table 5, 0.00039% test agent, 20 hour incubation, 48 well plate, read-out: % Reduction) of 52.2% and an inhibition at 0.0039 % (human sebocytes; Homo sapiens, 20 h, Table 5, 0.0039% test agent, 20 hour incubation, 48 well plate, read-out: % Reduction) of 41.8%. The “Average OD Reading” value ([1]; Table 6B, 0.003% test compound) was 2.534, the “Fold increase over control” value ([1]; Table 6B, 0.003% test compound) was 1.3 fold and the “Average OD Reading” value ([1]; Table 6B, 0.030% test compound) was 2.669. For the same compound, the “Fold increase over control” value ([1]; Table 6B, 0.030% test compound) was 1.4 fold, the “Average OD Reading” value ([2]; 0.003% test compound) was 0.22 and the “Fold increase over control” value ([2]; 0.003% test compound) was 0.8 fold. For the same compound, the “Average OD Reading” value ([2]; 0.03% test compound) was 0.38 and the “Fold increase over control” value ([2]; 0.03% test compound) was 1.5 fold.

For `CCCC(=O)OCCCCCCCCCCC(C)C` [Isotridecyl Butyrate], the inhibition at 0.00027 % (human sebocytes; Homo sapiens, 20 h, Table 3C, 0.00027% test agent, 20 hour incubation, 48 well plate, read-out: % Reduction) was 4.1%, the inhibition at 0.0027 % (human sebocytes; Homo sapiens, 20 h, Table 3C, 0.0027% test agent, 20 hour incubation, 48 well plate, read-out: % Reduction) was 17.2% and the “sebum suppression, result in words” value (human sebocytes) was “not effective sebum suppressive agents”.

With `CCCCCCCCCC(=O)OCCCCCCCCCCC(C)C` [Isotridecyl Decanoate] the “sebum suppression, result in words” value (human sebocytes) was “not effective sebum suppressive agents”.

`CCCCC/C=C\C/C=C\CCCCCCCC(=O)OCCCCCCCCCCC(C)C` [Isotridecyl Linoleate] was tested, and the inhibition at 4.6e-05 % (human sebocytes; Homo sapiens, 20 h, Table 5, 0.000046% test agent, 20 hour incubation, 48 well plate, read-out: % Reduction) was 57.3%, the inhibition at 0.00046 % (human sebocytes; Homo sapiens, 20 h, Table 5, 0.00046% test agent, 20 hour incubation, 48 well plate, read-out: % Reduction) was 50.9% and the inhibition at 0.0046 % (human sebocytes; Homo sapiens, 20 h, Table 5, 0.0046% test agent, 20 hour incubation, 48 well plate, read-out: % Reduction) was 44.9%. The “Average OD Reading” value [1, 4] was 2.346, the “Fold increase over control” value [1, 4] was 1.2 fold and the “Average OD Reading” value ([1]; Table 6B, 0.046% test compound) was 2.4585. For the same compound, the “Fold increase over control” value ([1]; Table 6B, 0.046% test compound) was 1.3 fold, the “Average OD Reading” value ([2]; 0.0046% test compound) was 0.40 and the “Fold increase over control” value ([2]; 0.0046% test compound) was 1.5 fold. The “Average OD Reading” value ([2]; 0.046% test compound) was 0.29 and the “Fold increase over control” value ([2]; 0.046% test compound) was 1.1 fold.

`CCCCCCCCC(=O)OCCCCCCCCCCC(C)C` [Isotridecyl Nonanoate] was tested, and the inhibition at 0.001 % (human sebocytes; Homo sapiens, 20 h, Table 3B, 20 hour incubation, 48 well plate, read-out: % Reduction) was 0.7%, the inhibition at 0.1 % (human sebocytes; Homo sapiens, 20 h, Table 3B, 0.1% test agent, 20 hour incubation, 48 well plate, read-out: % Reduction) was 0.8% and the “sebum suppression, result in words” value (human sebocytes) was “not effective sebum suppressive agents”.

In the case of `CC(C)CCCCCCCCCCOC(=O)c1ccccc1O` [Isotridecyl salicylate], the inhibition at 0.005 % (human sebocytes; Homo sapiens, 0.5 h, Table 4, 0.005% test agent, 30 minute incubation, 48 well plate, read-out: % Reduction) is reported as 24.6%, the inhibition at 0.01 % (human sebocytes; [5]) is reported as 48.9% and the “sebum suppression, result in words” value (human sebocytes) is reported as “effective in suppressing sebum”.

Work on `O=S1(=O)OC(c2ccc(O)cc2)(c2ccc(O)cc2)c2ccccc21` [Phenol Red] yielded an inhibition at 0.001 % (human sebocytes; Homo sapiens, 20 h, Table 1, 20 hour incubation, 48 well plate, read-out: % Reduction) of 19.6%, an inhibition at 0.001 % (human sebocytes; [3]) of 14% and an inhibition at 0.01 % (human sebocytes; [3]) of 71.2%.

`CCCCCCCCCCCCCOC(=O)c1ccccc1O` [Straight Chain TDS, tridecyl salicylate] gave an inhibition at 0.01 % (human sebocytes; [5]) of 1.3%.

With TGF-b the “Average OD Reading” value ([1]; Table 6A, test compound 0.01%, densitometer volume (OD*mm^2)) was 6.787, the “Fold increase over control” value ([1]; Table 6A, test compound 0.01%, ratio of densitometer reading over control) was 1.9 fold and the “Average OD Reading” value [1, 6] was 4.099. For the same compound, the “Fold increase over control” value [1, 6] was 2.1 fold, the “Average OD Reading” value [2, 7] was 0.86 and the “Fold increase over control” value [2, 7] was 3.3 fold.
